One may read the IC50 as the concentration at which inhibition is half-maximal. A low value points to greater potency.

Structures are written as SMILES.

In one experiment the target is urease enzyme from the Jack bean (Canavalia ensiformis) (Canavalia ensiformis, UniProt P07374). Put plainly: In vitro urease assay. In kind it is biochemical.
Chain of urease enzyme from the Jack bean (Canavalia ensiformis) (P07374 whole entry, looked up): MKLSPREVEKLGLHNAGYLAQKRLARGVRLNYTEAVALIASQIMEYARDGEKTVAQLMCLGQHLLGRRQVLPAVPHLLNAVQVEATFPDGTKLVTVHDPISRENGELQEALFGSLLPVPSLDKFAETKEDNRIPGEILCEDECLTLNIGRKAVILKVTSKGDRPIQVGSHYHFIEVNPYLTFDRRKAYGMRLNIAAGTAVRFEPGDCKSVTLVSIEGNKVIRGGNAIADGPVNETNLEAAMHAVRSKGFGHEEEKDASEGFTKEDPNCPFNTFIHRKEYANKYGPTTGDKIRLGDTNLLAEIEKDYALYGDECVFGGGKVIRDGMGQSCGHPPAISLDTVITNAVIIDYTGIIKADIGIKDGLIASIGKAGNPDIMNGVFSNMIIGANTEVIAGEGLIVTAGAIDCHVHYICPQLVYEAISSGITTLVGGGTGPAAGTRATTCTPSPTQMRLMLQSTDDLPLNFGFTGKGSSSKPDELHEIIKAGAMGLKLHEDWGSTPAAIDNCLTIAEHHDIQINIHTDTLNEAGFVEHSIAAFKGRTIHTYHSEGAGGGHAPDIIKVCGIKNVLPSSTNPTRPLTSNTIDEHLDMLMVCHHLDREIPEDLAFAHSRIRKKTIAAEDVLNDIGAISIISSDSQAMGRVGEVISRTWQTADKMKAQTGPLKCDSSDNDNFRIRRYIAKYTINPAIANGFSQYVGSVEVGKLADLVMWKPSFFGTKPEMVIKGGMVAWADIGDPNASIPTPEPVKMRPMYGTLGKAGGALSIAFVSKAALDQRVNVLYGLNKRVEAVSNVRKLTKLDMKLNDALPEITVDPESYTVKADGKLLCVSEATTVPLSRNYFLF
Conditions: not given
Turning to `Clc1ccc(C2=Nn3c(nnc3-c3cccc(Br)c3)SC2)cc1Cl` [5p], 13 ± 0.37 µM corresponded to half-maximal inhibition (IC50).
`COc1ccc(-c2nnc3n2N=C(c2ccc(Cl)cc2)CS3)cc1` [5b]: the IC50 was found to be 8.37 ± 0.16 µM.
The compound `COc1ccc(-c2nnc3sc(COc4ccc(C)cc4)nn23)cc1` [compound 4d] had a 50% inhibitory concentration (IC50) of 39 ± 0.53 µM.
On the same count and under the same terms, under `Oc1ccccc1OCc1nn2c(-c3cccc(Br)c3)nnc2s1` [4g] stands 4.5 ± 0.13 µM; under `Fc1ccc(OCc2nn3c(-c4cccc(Br)c4)nnc3s2)cc1` [compound 4l], 46.8 ± 0.63 µM; under `Cc1ccc(C2=Nn3c(nnc3-c3cccc(Br)c3)SC2)cc1` [5l], 5.56 ± 0.12 µM.
`COc1ccc(-c2nnc3sc(COc4ccc(O)cc4)nn23)cc1` [4b]: the IC50 was determined as 25.2 ± 0.56 µM. This IC50 lies about 4.5-fold higher than the previous one.
As to `Brc1cccc(-c2nnc3n2N=C(c2cccc4ccccc24)CS3)c1` [5n], the IC50 is 7.2 ± 0.18 µM. Against the preceding compound, the IC50 is about 3.5-fold lower.
On the same count and under the same terms, under `COc1ccc(-c2nnc3n2N=C(c2ccc(C)cc2)CS3)cc1` [5d] stands 5.16 ± 0.14 µM; under `COc1ccc(C2=Nn3c(nnc3-c3cccc(Br)c3)SC2)cc1` [5i], 9.55 ± 0.41 µM; under `Clc1ccc(C2=Nn3c(nnc3-c3cccc(Br)c3)SC2)cc1` [5j], 11.5 ± 0.38 µM.
Same read-out and setting: the same measure for `COc1ccc(-c2nnc3n2N=C(c2cccc4ccccc24)CS3)cc1` [5f]: 10.5 ± 0.26 µM; for `Cc1ccccc1OCc1nn2c(-c3cccc(Br)c3)nnc2s1` [compound 4i]: 9.63 ± 0.32 µM.
Same read-out and setting: under `Fc1ccc(C2=Nn3c(nnc3-c3cccc(Br)c3)SC2)cc1` [compound 5k] stands 3.33 ± 0.11 µM; under `COc1ccc(-c2nnc3sc(COc4ccccc4C)nn23)cc1` [compound 4c], 12 ± 0.25 µM.
As for `O=[N+]([O-])c1ccc(C2=Nn3c(nnc3-c3cccc(Br)c3)SC2)cc1` [5o], the midpoint of inhibition, the IC50, lay at 7.72 ± 0.31 µM.
For `COc1ccc(-c2nnc3n2N=C(c2ccc(F)cc2)CS3)cc1` [5c], the half-maximal inhibitory concentration (IC50) is 6.93 ± 0.14 µM.
Still for that read-out and setting: under `COc1ccc(C2=Nn3c(nnc3-c3ccc(OC)cc3)SC2)cc1` [5a] stands 5.91 ± 0.13 µM; under `Oc1ccc(OCc2nn3c(-c4cccc(Br)c4)nnc3s2)cc1` [4h], 6.79 ± 0.24 µM; under `Cc1ccc(OCc2nn3c(-c4cccc(Br)c4)nnc3s2)cc1` [compound 4j], 4.67 ± 0.15 µM.
Take `COc1ccc(-c2nnc3n2N=C(c2ccc(Cl)c(Cl)c2)CS3)cc1` [5h]: the IC50 was 5.3 ± 0.17 µM.

The experiment is the same for the next values; noted with them: relative to thiourea IC50.
With `Fc1ccc(C2=Nn3c(nnc3-c3cccc(Br)c3)SC2)cc1` [compound 5k], the “inhibitory potential fold higher than thiourea” value is recorded as around 6.5 fold.

The values are drawn from PMC10483676 (ACS Omega, 2023).
